Source: patent US20230310394A1 (THE SECOND XIANGYA HOSPITAL OF CENTRAL SOUTH UNIVERSITY, priority 2020, published 2023)
Values joined by “and” are separate entries in the source; they are usually repeats but may differ in a detail not shown here. Identical values can stand only once.

Assays:
Assay type in all cases: cell-based, Human
[1] = test system: HEL^RE (HEL-resistant, ruxolitinib-resistant) cells; assay: Anti-proliferative test, CellTiter-Lumi luminescence method, HEL-resistant model; details: for IC50: HEL^RE cells
Method: (§1) HEL (Human erythroleukemia cell line) and drug-resistant HEL cells were cultured in RPMI medium (Gibco) containing 20% heat-inactivated fetal bovine serum (Gibco) and 1% penicillin/streptomycin (Gibco).
(§2) HEL^PE model, namely HEL-persistent model, was constructed by treating HEL blast cells with a high concentration of ruxolitinib that exceeded the IC50 concentration of blast cells by more than 100 times, wherein the concentration of ruxolitinib used herein was 2.0 μM. The culture medium of the cells was changed every two days, the cells that cannot tolerate the high concentration of ruxolitinib died quickly, while the proliferated cells were DTP (drug-tolerant-persisters), and this cell subset was difficult to be killed by antitumor drugs. Stable drug-resistant cells were obtained after 4-6 weeks. Another drug resistance model is HEL^RE, namely the HEL-resistant model, which was constructed by treating blast cells with ruxolitinib from a starting concentration lower than the IC50 concentration of blast cells, slowly increasing to a high concentration to keep the cells from being killed. The starting concentration used herein was 0.1 μM, the drug was added as soon as the cells proliferated, the dosing gradient was 1.25-fold increments, and the final concentration was 2.0 μM. Stable drug-resistant cells were obtained after 4-6 weeks.
(§3) To test the anti-proliferative effect of the inhibitors, the above cell lines were cultured at a 3000 cells/200 μL per well, added with increasing concentrations of the inhibitors (concentration gradient: 0, 1, 2.5, 5, 10, 20 μM), then supplemented with DMSO to an equal volume. 4 parallel replicate groups and 3 blank wells (culture medium wells without cells) were set. After 72 hours, the cell proliferation was detected by a multi-plate reader using CellTiter-Lumi™ luminescence method (Beyotime), and the IC50 was calculated by Graph Pad prism.
(§4) The calculation formula of cell proliferation rate: cell proliferation rate=(Luminescence value of drug-treated group—average Luminescence value of blank wells)/(Luminescence value of DMSO control group—average Luminescence value of blank wells)×100%.
The method to evaluate whether the model is successfully constructed is to compare the IC50 of drug-resistant cells and naive cells, the obtained ratio was the drug-resistance index, and if the ratio was greater than 3, then the model was successfully constructed.

[2] = test system: HEL cells; assay: Anti-proliferative test, CellTiter-Lumi luminescence method, HEL cells; details: 72 hours; for average proliferation rate: HEL cells, relative to DMSO control
Method: as §1, §3, §4

[3] = test system: HEL^RE (HEL-resistant, ruxolitinib-resistant) cells; assay: Apoptosis detection by flow cytometry after Annexin V-PI staining, HEL-resistant model; details: 24 hours
Excerpt: (§5) Three parallel replicate groups were set up, and the apoptosis of cells was detected by flow cytometry after Annexin V-PI staining.
(§6) The calculation formula of the apoptosis rate: apoptosis rate=ratio of early apoptotic cells (Annexin V+/PI−)+ratio of late apoptotic cells and necrotic cells (Annexin V+/PI+).

[4] = test system: HEL cells; assay: Apoptosis detection by flow cytometry after Annexin V-PI staining, HEL cells; details: 24 hours
Excerpt: as §5, §6

[5] = test system: HEL^PE (HEL-persistent, ruxolitinib-resistant) cells; assay: Apoptosis detection by flow cytometry after Annexin V-PI staining, HEL-persistent model; details: 24 hours
Excerpt: as §5, §6

[6] = test system: HEL^PE (HEL-persistent, ruxolitinib-resistant) cells; assay: Anti-proliferative test, CellTiter-Lumi luminescence method, HEL-persistent model; details: for IC50: Homo sapiens, HEL^PE cells, 72 hours
Method: as §1, §2
as §3, with “4 parallel replicate groups and 3 blank wells (culture medium wells without cells) were set.” left out
The calculation formula of cell proliferation rate: cell proliferation rate=(Luminescence value of drug-treated group—average Luminescence value of blank wells)/(Luminescence value of DMSO control group—average Luminescence value of blank wells)×100%. […]

Structure (SMILES) | IC50 ([1]; Homo sapiens, 72 h) [µM] | average proliferation rate ([2]; 1 μM) | average proliferation rate ([2]; 2.5 μM) | average proliferation rate ([2]; 5 μM) | average proliferation rate ([2]; 10 μM) | average proliferation rate ([2]; 20 μM) | average apoptosis rate ([3]; 2.5 μM) | average apoptosis rate ([3]; 5 μM) | average apoptosis rate ([3]; 10 μM) | average apoptosis rate ([4]; 2.5 μM) | average apoptosis rate ([4]; 5 μM) | average apoptosis rate ([4]; 10 μM) | average apoptosis rate ([5]; 2.5 μM) [%] | average apoptosis rate ([5]; 5 μM) [%] | average apoptosis rate ([5]; 10 μM) [%] | IC50 ([1]; 72 hours) [µM] | drug-resistance index ([1]; ratio of IC50 of HEL^RE cells to IC50 of naive HEL cells) | IC50 ([2]; Homo sapiens, HEL naive cells, mean (95% confidence interval)) [nM] | IC50 [6] [µM] | drug-resistance index ([6]; ratio of IC50 of HEL^PE cells to IC50 of naive HEL cells)
CNC(=O)c1cc(Oc2ccc(NC(=O)Nc3ccc(Cl)c(C(F)(F)F)c3)c(F)c2)ccn1 [regorafenib] | 0.514 | 84.7% | 57.7% | 32.1% | 17.7% | 1.15% | 9.50% | 12.9% | 14.7% | 4.31% | 7.76% | 10.6% |  |  |  |  |  |  |  | 
N#CC[C@H](C1CCCC1)n1cc(-c2ncnc3[nH]ccc23)cn1 [ruxolitinib, Ruxolitinib] |  | 41.4% and 50.5% | 40.6% and 48.4% | 42.8% and 50.2% | 40.8% and 48.4% | 22.9% and 28.5% | 1.16% and 3.75% | 1.35% and 3.70% | 1.05% and 4.34% | 4.65% and 2.05% | 5.07% and 2.14% | 4.59% and 2.16% | 0.920 | 1.11 | 0.740 | 24.9 | 498 | 50 | 25.5 | 510
CNC(=O)c1cc(Oc2ccc(NC(=O)Nc3ccc(Cl)c(C(F)(F)F)c3)cc2)ccn1 [sorafenib] | 3.56 | 80.3% | 72.1% | 40.0% |  | 0.828% | 1.22% | 5.58% | 18.6% | 5.82% | 10.9% | 16.1% | 2.16 | 11.1 | 18.0 |  |  |  | 2.8 | 
